This test deals with NS3-NS4 (Hepatitis C virus genotype 1a, UniProt P27958). Kind of test: NS3-NS4 activity, IC50 (Example 37, Table 8). It counts as biochemical.

The source of these data is patent publication US20090155209A1, “NOVEL MACROCYCLIC INHIBITORS OF HEPATITIS C VIRUS REPLICATION” (priority 2007, published 2009).

NS3-NS4, sequence (P27958 1027-1657): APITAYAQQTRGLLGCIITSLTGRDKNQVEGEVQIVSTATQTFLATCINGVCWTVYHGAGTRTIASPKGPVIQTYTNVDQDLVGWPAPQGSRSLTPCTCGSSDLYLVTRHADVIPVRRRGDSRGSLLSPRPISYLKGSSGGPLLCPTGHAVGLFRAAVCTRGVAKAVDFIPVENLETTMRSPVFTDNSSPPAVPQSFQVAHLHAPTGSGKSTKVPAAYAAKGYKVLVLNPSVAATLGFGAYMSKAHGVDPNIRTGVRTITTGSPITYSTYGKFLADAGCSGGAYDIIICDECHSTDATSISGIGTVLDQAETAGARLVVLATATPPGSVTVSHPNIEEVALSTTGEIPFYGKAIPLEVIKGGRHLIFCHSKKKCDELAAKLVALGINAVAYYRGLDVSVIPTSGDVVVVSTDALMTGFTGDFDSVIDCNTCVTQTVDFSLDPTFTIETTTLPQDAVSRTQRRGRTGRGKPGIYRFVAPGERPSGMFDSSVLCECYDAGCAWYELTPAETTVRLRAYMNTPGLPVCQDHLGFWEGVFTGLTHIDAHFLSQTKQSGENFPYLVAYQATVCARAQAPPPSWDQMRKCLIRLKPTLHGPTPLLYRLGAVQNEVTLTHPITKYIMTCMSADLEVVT
NS3-NS4, sequence (P27958 1658-1711): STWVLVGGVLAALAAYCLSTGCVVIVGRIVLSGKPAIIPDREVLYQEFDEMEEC

The IC50 is the concentration that gives 50% inhibition. A low value points to greater potency. With `CC(C)(C)OC(=O)N[C@H]1CCCCCCC[C@@H]2C[C@@]2(C(=O)NS(=O)(=O)Cc2cccc(F)c2)NC(=O)[C@@H]2C[C@@H](OC(=O)N3Cc4cccc(F)c4C3)CN2C1=O` [Compound 608], the IC50 is < 100 nM.
The value for `CC(C)(C)OC(=O)N[C@H]1CCCCCC2C([C@@H]3C[C@@]3(C(=O)NS(=O)(=O)C3CC3)NC(=O)[C@@H]3C[C@@H](OC(=O)N4Cc5cccc(F)c5C4)CN3C1=O)C2(Cl)Cl` (stereo partly drawn) [Compound 907] was 100 to 1000 nM.
Turning to `Cc1cc(S(=O)(=O)NC(=O)[C@@]23C[C@H]2CCCCCCC[C@H](NC(=O)OC(C)(C)C)C(=O)N2C[C@H](OC(=O)N4Cc5cccc(F)c5C4)C[C@H]2C(=O)N3)sc1C` [Compound 646], the IC50 is < 100 nM.
Under `Cc1ccc(S(=O)(=O)NC(=O)[C@@]23C[C@H]2CCCCCCC[C@H](NC(=O)OC(C)(C)C)C(=O)N2C[C@H](OC(=O)N4Cc5cccc(F)c5C4)C[C@H]2C(=O)N3)s1` [Compound 644] stands < 100 nM; under `Cc1ccc(CS(=O)(=O)NC(=O)[C@@]23C[C@H]2CCCCCCC[C@H](NC(=O)OC(C)(C)C)C(=O)N2C[C@H](OC(=O)N4Cc5cccc(F)c5C4)C[C@H]2C(=O)N3)cc1C` [Compound 630], < 100 nM.
The value for `CC(C)(C)OC(=O)N[C@H]1CCCCCCC[C@@H]2C[C@@]2(C(=O)NS(=O)(=O)Cc2c(Cl)cccc2Cl)NC(=O)[C@@H]2C[C@@H](OC(=O)N3Cc4cccc(F)c4C3)CN2C1=O` [Compound 626] was < 100 nM; that for `CC(C)(C)OC(=O)N[C@H]1CCCCCCC[C@@H]2C[C@@]2(C(=O)NS(=O)(=O)Cc2ccccc2C(F)(F)F)NC(=O)[C@@H]2C[C@@H](OC(=O)N3Cc4cccc(F)c4C3)CN2C1=O` [Compound 617] was < 100 nM.
Take `CC(C)(C)OC(=O)N[C@H]1CCCCCC2CC2[C@@H]2C[C@@]2(C(=O)NOc2ccccc2)NC(=O)[C@@H]2C[C@@H](OC(=O)N3Cc4cccc(F)c4C3)CN2C1=O` (stereo partly drawn) [Compound 906]: the IC50 is < 100 nM.
The value for `Cc1ccc(CS(=O)(=O)NC(=O)[C@@]23C[C@H]2CCCCCCC[C@H](NC(=O)OC(C)(C)C)C(=O)N2C[C@H](OC(=O)N4Cc5cccc(F)c5C4)C[C@H]2C(=O)N3)c(C)c1` [Compound 628] was < 100 nM; that for `CC(C)(C)OC(=O)N[C@H]1CCCCC/C=C\[C@@H]2C[C@@]2(C(=O)NS(=O)(=O)c2ccc(Cl)s2)NC(=O)[C@@H]2C[C@@H](OC(=O)N3Cc4cccc(F)c4C3)CN2C1=O` [Compound 535] was < 100 nM.
In the case of `CC(C)(C)OC(=O)N[C@H]1CCCCCCC[C@@H]2C[C@@]2(C(=O)NS(=O)(=O)Cc2cc(C(F)(F)F)cc(C(F)(F)F)c2)NC(=O)[C@@H]2C[C@@H](OC(=O)N3Cc4cccc(F)c4C3)CN2C1=O` [Compound 634], the IC50 is < 100 nM.
The value for `CC(C)(C)OC(=O)N[C@H]1CCCCCCC[C@@H]2C[C@@]2(C(=O)NS(=O)(=O)Cc2cc(F)cc(F)c2)NC(=O)[C@@H]2C[C@@H](OC(=O)N3Cc4cccc(F)c4C3)CN2C1=O` [Compound 623] was < 100 nM; that for `Cc1ccccc1CS(=O)(=O)NC(=O)[C@@]12C[C@H]1/C=C\CCCCC[C@H](NC(=O)OC(C)(C)C)C(=O)N1C[C@H](OC(=O)N3Cc4cccc(F)c4C3)C[C@H]1C(=O)N2` [Compound 513] was < 100 nM; that for `CC(C)(C)OC(=O)N[C@H]1CCCCCCC[C@@H]2C[C@@]2(C(=O)NS(=O)(=O)Cc2ccc(Cl)cc2Cl)NC(=O)[C@@H]2C[C@@H](OC(=O)N3Cc4cccc(F)c4C3)CN2C1=O` [Compound 624] was < 100 nM.
In the case of `CC(C)(C)OC(=O)N[C@H]1CCCCCCC[C@@H]2C[C@@]2(C(=O)NS(=O)(=O)c2ccc(Cl)nc2)NC(=O)[C@@H]2C[C@@H](OC(=O)N3Cc4cccc(F)c4C3)CN2C1=O` [Compound 636], the IC50 is < 100 nM.
For `CC(C)(C)OC(=O)N[C@H]1CCCCCCC[C@@H]2C[C@@]2(C(=O)NS(=O)(=O)c2cc(Cl)cs2)NC(=O)[C@@H]2C[C@@H](OC(=O)N3Cc4cccc(F)c4C3)CN2C1=O` [Compound 642], the IC50 was < 100 nM.
`CC(C)(C)OC(=O)N[C@H]1CCCCCCC[C@@H]2C[C@@]2(C(=O)NS(=O)(=O)Cc2ccccc2F)NC(=O)[C@@H]2C[C@@H](OC(=O)N3Cc4cccc(F)c4C3)CN2C1=O` [Compound 607]: the IC50 is < 100 nM.
On to `CC(C)(C)OC(=O)N[C@H]1CCCCCCC[C@@H]2C[C@@]2(C(=O)NS(=O)(=O)c2ccc(Cl)s2)NC(=O)[C@@H]2C[C@@H](OC(=O)N3Cc4cccc(F)c4C3)CN2C1=O` [Compound 641], for which the IC50 was < 100 nM.
Under `Cc1ccccc1ONC(=O)[C@@]12C[C@H]1/C=C\CCCCC[C@H](NC(=O)OC(C)(C)C)C(=O)N1C[C@H](OC(=O)N3Cc4cccc(F)c4C3)C[C@H]1C(=O)N2` [Compound 701] stands < 100 nM; under `COc1cccc(CS(=O)(=O)NC(=O)[C@@]23C[C@H]2CCCCCCC[C@H](NC(=O)OC(C)(C)C)C(=O)N2C[C@H](OC(=O)N4Cc5cccc(F)c5C4)C[C@H]2C(=O)N3)c1OC` [Compound 631], < 100 nM; under `Cc1cccc(CS(=O)(=O)NC(=O)[C@@]23C[C@H]2CCCCCCC[C@H](NC(=O)OC(C)(C)C)C(=O)N2C[C@H](OC(=O)N4Cc5cccc(F)c5C4)C[C@H]2C(=O)N3)c1` [Compound 614], < 100 nM.
The value for `CC(C)(C)OC(=O)N[C@H]1CCCCCCC[C@@H]2C[C@@]2(C(=O)NS(=O)(=O)Cc2cc(Cl)ccc2Cl)NC(=O)[C@@H]2C[C@@H](OC(=O)N3Cc4cccc(F)c4C3)CN2C1=O` [Compound 625] was < 100 nM.
The value for `CC(C)(C)OC(=O)N[C@H]1CCCCC/C=C\[C@@H]2C[C@@]2(C(=O)NOc2cccc(Cl)c2)NC(=O)[C@@H]2C[C@@H](OC(=O)N3Cc4cccc(F)c4C3)CN2C1=O` [Compound 706] was < 100 nM.
As for `CC(C)(C)OC(=O)N[C@H]1CCCCCCC[C@@H]2C[C@@]2(C(=O)NS(=O)(=O)c2cc(Cl)c(Cl)s2)NC(=O)[C@@H]2C[C@@H](OC(=O)N3Cc4cccc(F)c4C3)CN2C1=O` [Compound 643], the IC50 was < 100 nM.
Under `Cc1cc(S(=O)(=O)NC(=O)[C@@]23C[C@H]2CCCCCCC[C@H](NC(=O)OC(C)(C)C)C(=O)N2C[C@H](OC(=O)N4Cc5cccc(F)c5C4)C[C@H]2C(=O)N3)oc1C` [Compound 640] stands < 100 nM; under `CC(C)(C)OC(=O)N[C@H]1CCCCCCC[C@@H]2C[C@@]2(C(=O)NS(=O)(=O)Cc2cccc(C(F)(F)F)c2)NC(=O)[C@@H]2C[C@@H](OC(=O)N3Cc4cccc(F)c4C3)CN2C1=O` [Compound 618], < 100 nM.
Under `COc1csc(S(=O)(=O)NC(=O)[C@@]23C[C@H]2CCCCCCC[C@H](NOC(=O)C(C)(C)C)C(=O)N2C[C@H](OC(=O)N4Cc5cccc(F)c5C4)C[C@H]2C(=O)N3)c1` [Compound 647] stands < 100 nM.
Under `CC(C)(C)OC(=O)N[C@H]1CCCCC/C=C\[C@@H]2C[C@@]2(C(=O)NS(=O)(=O)c2ccc(Cl)nc2Cl)NC(=O)[C@@H]2C[C@@H](OC(=O)N3Cc4cccc(F)c4C3)CN2C1=O` [Compound 531] stands < 100 nM; under `Cc1cc(S(=O)(=O)NC(=O)[C@@]23C[C@H]2/C=C\CCCCC[C@H](NC(=O)OC(C)(C)C)C(=O)N2C[C@H](OC(=O)N4Cc5cccc(F)c5C4)C[C@H]2C(=O)N3)sc1C` [Compound 540], < 100 nM; under `CC(C)(C)OC(=O)N[C@H]1CCCCCCC[C@@H]2C[C@@]2(C(=O)NS(=O)(=O)Cc2c(F)cccc2F)NC(=O)[C@@H]2C[C@@H](OC(=O)N3Cc4cccc(F)c4C3)CN2C1=O` [Compound 621], < 100 nM.
Take `CC(C)(C)OC(=O)N[C@H]1CCCCC/C=C\[C@@H]2C[C@@]2(C(=O)NOCC2CC2)NC(=O)[C@@H]2C[C@@H](OC(=O)N3Cc4cccc(F)c4C3)CN2C1=O` [Compound 717]: the IC50 was < 100 nM.
Take `CC(C)(C)OC(=O)N[C@H]1CCCCCCC[C@@H]2C[C@@]2(C(=O)NS(=O)(=O)Cc2ccc(Cl)cc2)NC(=O)[C@@H]2C[C@@H](OC(=O)N3Cc4cccc(F)c4C3)CN2C1=O` [Compound 612]: the IC50 is < 100 nM.
Take `CC(C)(C)OC(=O)N[C@H]1CCCCCCC[C@@H]2C[C@@]2(C(=O)NS(=O)(=O)Cc2ccc(C(F)(F)F)cc2)NC(=O)[C@@H]2C[C@@H](OC(=O)N3Cc4cccc(F)c4C3)CN2C1=O` [Compound 619]: the IC50 was < 100 nM.
Under `CC(C)(C)OC(=O)N[C@H]1CCCCCCC[C@@H]2C[C@@]2(C(=O)NS(=O)(=O)Cc2ccc(C(F)(F)F)cc2C(F)(F)F)NC(=O)[C@@H]2C[C@@H](OC(=O)N3Cc4cccc(F)c4C3)CN2C1=O` [Compound 633] stands < 100 nM.
The value for `COc1cccc(CS(=O)(=O)NC(=O)[C@@]23C[C@H]2CCCCCCC[C@H](NC(=O)OC(C)(C)C)C(=O)N2C[C@H](OC(=O)N4Cc5cccc(F)c5C4)C[C@H]2C(=O)N3)c1` [Compound 616] was < 100 nM; that for `CC(C)(C)OC(=O)N[C@H]1CCCCC/C=C\[C@@H]2C[C@@]2(C(=O)NS(=O)(=O)c2ccc(Cl)nc2)NC(=O)[C@@H]2C[C@@H](OC(=O)N3Cc4cccc(F)c4C3)CN2C1=O` [Compound 530] was < 100 nM; that for `CC(C)(C)ONC(=O)[C@@]12C[C@H]1/C=C\CCCCC[C@H](NC(=O)OC(C)(C)C)C(=O)N1C[C@H](OC(=O)N3Cc4cccc(F)c4C3)C[C@H]1C(=O)N2` [Compound 716] was < 100 nM.
Under `CC(C)(C)OC(=O)N[C@H]1CCCCCCC[C@@H]2C[C@@]2(C(=O)NS(=O)(=O)Cc2cccc(Cl)c2)NC(=O)[C@@H]2C[C@@H](OC(=O)N3Cc4cccc(F)c4C3)CN2C1=O` [Compound 611] stands < 100 nM.
`CC(C)(C)OC(=O)N[C@H]1CCCCCCC[C@@H]2C[C@@]2(C(=O)NS(=O)(=O)Cc2cc(F)ccc2F)NC(=O)[C@@H]2C[C@@H](OC(=O)N3Cc4cccc(F)c4C3)CN2C1=O` [Compound 620]: the IC50 was < 100 nM.
As for `CC(C)(C)OC(=O)N[C@H]1CCCCCCC[C@@H]2C[C@@]2(C(=O)NS(=O)(=O)Cc2ccc(F)cc2)NC(=O)[C@@H]2C[C@@H](OC(=O)N3Cc4cccc(F)c4C3)CN2C1=O` [Compound 609], the IC50 is < 100 nM.
On to `COc1ccc(S(=O)(=O)NC(=O)[C@@]23C[C@H]2/C=C\CCCCC[C@H](NC(=O)OC(C)(C)C)C(=O)N2C[C@H](OC(=O)N4Cc5cccc(F)c5C4)C[C@H]2C(=O)N3)cn1` [Compound 532], for which the IC50 is < 100 nM.
Under `CC(C)(C)OC(=O)N[C@H]1CCCCCCC[C@@H]2C[C@@]2(C(=O)NS(=O)(=O)Cc2ccc(F)c(F)c2)NC(=O)[C@@H]2C[C@@H](OC(=O)N3Cc4cccc(F)c4C3)CN2C1=O` [Compound 622] stands < 100 nM.
